Measured values: a melting point compilation (Tetko et al.)

melting point [°C]	Compound
180	CN(C)c1ccc(C(c2ccc(N(C)C)cc2)c2ccc(N(C)C)cc2)cc1
197 to 200	Cc1onc(-c2ccc(F)cc2)c1C(=O)O
106 to 109	CC(=O)CC[C@H]1[C@@H](C#N)[C@H](C(C)C)CC[C@@]1(C)OC(C)=O
131 to 133	COc1nn(-c2ccccc2)cc1/C=C/C=O
200 to 201	CC(/C=C(\C)c1ccc(-c2ccccc2)cc1)=NNS(=O)(=O)c1ccc([N+](=O)[O-])c([N+](=O)[O-])c1
251 to 253	O=C1Nc2ccc(Br)cc2C1=O
202	CC(NC(=O)COC(=O)c1ccccc1)C(N)=O (stereo unspecified)
164	Cc1c(Cl)cccc1C(=O)O
141 to 146	O=C(C=Cc1ccc(F)cc1)C=Cc1ccc(F)cc1
144 to 146	O=C=NC12CC3CC(CC(C3)C1)C2
-50	CC(C)C(C)N (stereo unspecified)
120	O=C(Nc1ccccc1)c1cccnc1
39 to 42	Cc1nn(C)c(C)c1S(=O)(=O)Cl
56	Cc1c(Br)cc([N+](=O)[O-])cc1Br
18.5	CCCCCCCCCCCCCC1CCCCC1
128 to 134	O=C1CC2C(CC(OC(=O)c3ccc(-c4ccccc4)cc3)C2CO)O1 (single isomer, unassigned; (-))
108 to 111	CCOC(=O)c1sc(SC)c2c1CCCC2=O
123	O=C(O)c1cc(F)c(F)c(Br)c1F
99.5	CCCCCCCCC(N)=O
211 to 215	O=C(O)CNc1ccc(Br)cc1C(=O)O
75	CCN(CC)CCn1cnc2c1c(=O)n(C)c(=O)n2C
250 to 252	COc1ccc(Br)cc1/C=c1\sc2nc3ccccc3n2c1=O
128	O=C(CC(C(=O)c1ccccc1)c1ccccc1)c1ccccc1 (stereo unspecified)

melting point [°C]	Compound
79 to 80	N#Cc1ccnc(N2CCCC2)c1
117	Cl/C(=C\c1ccccc1)c1cccc2ccccc12
224	COc1cc(OC)c(C(=O)/C=C/c2cc3c(cc2[N+](=O)[O-])OCO3)c(OC)c1
101	COC(=O)c1cc([N+](=O)[O-])ccc1OC
99.8	c1ccc2sc(SN(C3CCCCC3)C3CCCCC3)nc2c1
210 to 211	Cc1ncc(C(=O)O)c(-c2ccccc2)n1
75 to 79	N[C@@H](CO)c1ccccc1
119 to 121	Cc1ccc(C(=O)C=Cc2ccc(F)cc2)cc1
162	CC(C)(C)N(NC(=O)c1ccccc1)C(=O)c1ccccc1Cl
-32.5	Cc1ccc(Cl)c(C)c1
137	CCCC(c1ccc(O)cc1)c1ccc(O)cc1
128	Nc1cc(Cl)ccc1[N+](=O)[O-]
-39	COc1ccccc1F
128 to 134	Cc1ccc(C(C=O)C=O)cc1
62	Cc1cc(Br)cnc1F
170	CC(=O)c1nn(-c2cccc(C)c2C)c(=N)s1
45 to 48	Cc1ccc(S(=O)(=O)OCC2CO2)cc1 (stereo unspecified)
146	CCCc1nc(O)n(-c2ccccc2)n1
60 to 62	Cc1ccc([N+](=O)[O-])cc1N=C=S
145	CCCOc1ccc(C(=O)O)cc1
70 to 73	CC(=O)c1cc(Cl)c(C)cc1O
13 to 14	Cc1ccc(C)c(C#N)c1
-60	FC(Cl)CCl (stereo unspecified)

melting point [°C]	Compound
178	O=C(O)c1ccccc1P(c1ccccc1)c1ccccc1
30.5	CCCCCCCCCCCC(C)=O
179 to 180	CC(=CCNc1ncnc2c1ncn2C1OC(CO)C(O)C1O)CO (stereo unspecified)
136	Nc1cc2ccccc2oc1=O
236 to 238	O=C(Nc1cccc(C(F)(F)F)c1)Nc1nnc(-c2ccc(Cl)cc2)o1
-76.8	CC(C)C[N+](=O)[O-]
83	COC(=O)c1ccccc1C(=O)O
64	O=[N+]([O-])c1ccc(OCCBr)cc1
143	O=C(c1ccc(C(=O)C(Cl)Cl)cc1)C(Cl)Cl
35	CCCCCCCCC=CCCCCCCCCCCCCO
287 to 289	NNc1nc(N)nc(-c2ccccn2)n1
217	NCC(O)c1ccc(O)c(O)c1 (stereo unspecified)
60	CC(C)C(CO)CCC(C)(O)C(O)C(C)C (stereo unspecified)
103 to 105	CSc1ccc(C(=O)O)s1
189	COc1cc(C(=O)NCc2ccc(OCCN(C)C)cc2)cc(OC)c1OC
27	CCCCCCCCCCCCCCCCCC(=O)OCCCC
-4	Cc1ncccn1
317	CC(=O)Nc1ccc(N=Nc2ccc([N+]([O-])=Nc3ccc(NC(C)=O)cc3)cc2)cc1
69.8	COC(=O)[C@H](C)On1c(C)csc1=S
254	COc1cccc(C=C2C(=O)NN=C2c2c(O)c3ccccc3n(C)c2=O)c1
222 to 224	Cc1n[nH]c2c(=O)n(-c3ccccn3)c(C)nc12
210	Cc1cc(=O)oc2cc(OP(=O)(O)O)ccc12
59	Clc1cc(Cl)c(Cl)c(Br)c1

melting point [°C]	Compound
< 25	FC(F)(F)COCC(F)(F)F
300	CCSc1nc(N)c(Br)c(O)n1
118	N#Cc1ccc(Cl)nc1
89 to 91	COC(=O)c1cc(Br)cc(C(=O)OC)c1
225 to 226	Cc1nn(C)c(C(=O)O)c1Br
250 to 255	O=C(CSc1nc(=O)[nH]c2c1CCCC2)c1ccccc1
92	CCOC(=O)c1c(-c2ccccc2)csc1N
98 to 99	Cc1nc(-c2ccc(Br)cc2)no1
180	S=c1sc2nc3ccccc3nc2s1
66	CC(=O)c1csc(-c2ccc(C(F)(F)F)cc2)n1
154 to 155	CC(C)(C)n1nc(-c2ccc(Cl)cc2)c(C#N)c1N
238 to 240	OCc1cnc(S)n1Cc1ccccc1
170	CC(C)NCC(O)COc1cccc2[nH]ccc12 (stereo unspecified)
203 to 207	COc1ccc(C2Sc3ccccc3NC(=O)C2O)cc1 (stereo unspecified)
170	COc1cc(C)c(Cl)cc1S(N)(=O)=O
243 to 247	N#Cc1ccc(C=NNC(N)=S)cc1
220 to 223	COCc1cc(O)nc(S)n1
232	O=C(O)C(=Cc1ccc(Cl)cc1)C(=Cc1ccc(Cl)cc1)C(=O)O
151 to 153	N#Cc1ccc(-n2ccnc2)cc1
55	O=[N+]([O-])c1cc(C(F)(F)F)c(Cl)cc1Cl
-70	CC(C)CC(C)(C)CO
270 to 275	N[C@@H](Cc1ccccc1)C(=O)O
181 to 182	Cc1c(O)ccc2c1OC(C)(C)CC2=O

melting point [°C]	Compound
174 to 178	O=C(O)CNC(=O)OCC1c2ccccc2-c2ccccc21
178	Cc1nc(C(F)(F)F)c(C(=O)Nc2c(Br)cc(OC(F)(F)F)cc2Br)s1
121	Cc1n[nH]c(C)c1Br
> 300	O=[N+]([O-])c1ccc(-c2nnc3n2CN(c2ccccn2)CS3)cc1
145	O=C(c1ccc(Br)cc1)c1noc(-c2ccc(Cl)cc2)c1S(=O)(=O)c1ccccc1
190 to 193	CCCCCc1ccc(-c2nnc(S)[nH]2)cc1
130	Cc1cc(C)c(Cc2c(C)cc(C)cc2C)c(C)c1
228 to 230	COc1ccccc1-c1nnc2n1NC(c1ccc(N(C)C)cc1)S2 (stereo unspecified)
264	COc1ccc(C2C(C#N)=C(N)Oc3cc(C)n(CCc4ccccc4)c(=O)c32)cc1 (stereo unspecified)
132	OC1OCC(Cc2ccc3c(c2)OCO3)C1Cc1ccc2c(c1)OCO2 (stereo unspecified)
90.5	c1ccc(Nc2ccccn2)nc1
94 to 96	CC(=O)CCc1c[nH]c2ccccc12
105	OCC(O)CN1CCN(c2ccccc2)CC1 (stereo unspecified)
50 to 52	CCOC(=O)c1cccc(-c2nccs2)c1
231 to 234	O=Cc1ccc(-c2cncc(C(=O)O)c2)cc1
193 to 203	Nc1ccc(SCC(=O)O)cc1
161 to 163	Cn1ncc(C=O)c1N
133 to 135	Cc1nn(C)c2sc(CO)cc12
184	O=C(O)c1cncc(Br)c1
116	Cc1cccc(C)c1C(=O)O
273 to 275	O=C(O)[C@@H]1Cc2ccc(O)cc2CN1
114	CN(C)c1ccc(C=CC(=O)c2ccccc2)cc1

Compound	melting point [°C]
COc1nc(C)nc(NC(=O)NS(=O)(=O)c2ccccc2Cl)n1	176
Cc1ccc(C=C[N+](=O)[O-])cc1	96 to 99
COC(=O)c1ccccc1S(=O)(=O)NC(=O)N(C)c1nc(C)nc(OC)n1	142
CN1CC2CC(C1)c1cccc(=O)n1C2 (stereo unspecified)	137
NC(=O)OCCCc1ccccc1	102
O=C(C(F)(F)F)C(F)(F)Cl	-133
N#CC(C#N)=C1c2cc([N+](=O)[O-])ccc2-c2c1cc([N+](=O)[O-])cc2[N+](=O)[O-]	267
CNCCCCCCN(C)N(O)N=O	102 to 108
CC(=O)NC1CCSC1=O (racemic)	110
CNC(c1ccccc1)C(NC)c1ccccc1 (stereo unspecified)	48 to 51
Cc1ccc(P(c2ccccc2)c2ccccc2)cc1	66 to 68
CCOP(=S)(OCC)Oc1ccc([N+](=O)[O-])cc1	6.1
Fc1cccc(F)c1CBr	51 to 55
c1ccc(N2CCNCC2)cc1	18.8
C#CC(C)(C)NC(=O)c1cc(Cl)cc(Cl)c1	156
O=C(CBr)c1ccc(F)c(F)c1	28 to 30
Cc1ccc(NN=C2C(=O)NC(=S)NC2=O)cc1	305
